In US8906869B2 (University of South Florida, priority 2007, dated 2014):

Legend:
PTEN [1] = assay: Immunoblotting of PTEN protein in A2780CP cells after knockdown of miR-214; format: cell-based, human; settings: 150 pM/well, 72 h
Procedure: (§1) PTEN mRNA level was measured by RT-PCR (panel 8). U6 (panel 7) and GAPDH (bottom panel) were used for controls. […] Anti-mi[…] and scramble 2'-O-methyl oligonucleotide were used as controls. After incubation of 72 h, cells were lysed and immunoblotted with indicated antibodies (C). […] Following 36 h incubation, cells were subjected to luciferase assay. The data are the means of three independent experiments, and error bars indicate standard deviations. (F) Representative tumor and normal tissue lysates were analyzed by Western blot with indicated antibodies (panels 1 and 2). […] U6 was used as a control (bottom panel). […] Cells were grown in 6-well plate ([…]) for 24 hand transfected with 150 pMol of 2'-O-me oligoribonucleotides per well using Lipofectamine 2000. RNA and protein were extracted after 72 h transfection. […] The cells transfected with pcDNA3.[…][…]-Togo vector alone and pcDNA3.[…][…]-Topo-miR-199a* were used as controls. […]). […] PTEN protein was examined in a same series of normal ovary and primary ovarian tumor specimens for expression of miRNAs (FIG. 2F).

A2780CP cells = assay: MTT cell viability and flow cytometry apoptosis in A2780CP cells; format: cell-based, human
Procedure: (§2) FIG. 4. […] (B) MTT assay. […] (C) Flow cytometry. Indicated cells were treated with cisplatin or DMSO for 12 h and the subG1 population was identified by flow cytometry.
The cells transfected with 2′-O-methyl-scramble-miR were used as control. […] Further, the cells were treated with cisplatin or vehicle DMSO.

Akt = assay: Immunoblotting of phosphorylation of Akt and Akt substrates in A2780CP cells after knockdown of miR-214; format: cell-based, human; settings: 150 pM/well, 72 h
Procedure: as §1

miR-214 = assay: qRT-PCR of miR-214 expression after antisense 2'-O-methyl oligonucleotide transfection; format: cell-based, human; settings: A2780CP cells, 150 pMol per well, 72 h transfection
Procedure: as §2
Expression of miRNAs was also analysed by RNase protection or mirVana qRT-PCR miRNA detection assay. For RNase protection assay, enriched small RNA was purified using the miRVana miRNA isolation Kit (Ambion). […] Probe hybridization and RNase protection were then carried out using the mirVana™ miRNA detection kit (Ambion) according to manufacturer's instructions. After hybridization and RNase treatment, the double-strand products were resolved in a 15% polyacrylamide 8 M urea denaturing gel and visualized using phospho imaging and autoradiography. mirVanaqRT-PCR was performed according to the manufacturer's protocol (Ambion). PCR products were analyzed by electrophoresis, on a 7.5% polyacrylamide gel in 0.5×TBE and visualized by ethidium bromide staining.
2′-O-methyl (2-O-me) oligoribonucleotides were synthesized by Integrated DNA Technologies. […] […]-3′ (SEQ ID NO: 5) and 5′-[…]-3′ (SEQ ID NO: 6). 2′-O-me-scrambled miR (5′-[…]-3′) (SEQ ID NO: 7) was used as a control. Cells were grown in 6-well plate ([…]) for 24 hand transfected with 150 pMol of 2′-O-me oligoribonucleotides per well using Lipofectamine 2000. RNA and protein were extracted after 72 h transfection.

PTEN [2] = settings: ovarian cancer, reference 25; cited from earlier work

| Compound | protein level of PTEN (PTEN [1]) | sensitization to cisplatin-induced apoptosis (A2780CP cells; cisplatin 20 uM, MTT and flow cytometry) | reduction of cell survival (A2780CP cells; knockdown of miR-214 alone, cell viability analysis) | phosphorylation levels of Akt and Akt substrates GSK3β and p70S6K (Akt) | level of miR-214 (miR-214) | PTEN protein expression (PTEN [2]) |
| --- | --- | --- | --- | --- | --- | --- |
| 2′-O-methyl-anti-miR-214: antisense 2′-O-methyl oligoribonucleotide targeting miR-214, 5′-CUGCCUGUCUGUGCCUGCUGU-3′ (SEQ ID NO: 5) (all 2'-O-methyl, backbone not given here) | increased the protein level of PTEN | considerably sensitized A2780CP cells to cisplatin-induced apoptosis | about 20% | decreased | significantly decreased | – |
| Nc1ncn([C@H]2C[C@H](O)[C@@H](CO)O2)c(=O)n1 [5-aza-2′ deoxycytidine] | – | – | – | – | – | failed to restore PTEN protein expression |
